≈ marks a conversion by molar mass, not a printed value.

The conditions of data set [1]: cited from earlier work.
Data set [2] in a line: Release testing, USP paddle apparatus, purified water, UV at 260 nm. In kind it is physicochemical. Particulars: raw material, 0.2 g in 100 ml water; FIG. 1. How it is done: Dissolution experiments were performed in a Sotax AT7 Dissolution apparatus, USP paddle.
All assays were performed in a Shimadzu UV-1700 spectrophotometer.
Release testing was performed in a USP paddle apparatus using 500 ml purified water as release medium and operated at 100 rpm. The results were quantified by a Shimadzu spectrophotometer at 260 nm after dilution 1:50.
To assess whether the ethylcellulose film coating was able to delay the release of nicotinamide, the release from the coated 95% granules (RD1302-2-C1) was tested and compared to the release from the raw material. Nicotinamide from the raw material (0.2 g in 100 ml water) was dissolved very quickly and within 5 minutes. […] Release of the remaining nicotinamide started later than 30 minutes, and after 3 hours 85% had been released. This means that release of nicotinamide can be released over 3 hours by applying an ethylcellulose film.

With `NC(=O)c1cccnc1` [Nicotinamide], the “Solubility in 96% ethanol” value in data set [1] (96% ethanol) is 660 mg/mL (≈ 5400 mM). Besides, the Solubility in water in data set [1] (water, 20° C.) was 690 mg/mL (≈ 5650 mM). Moreover, the Time until dissolved in data set [2] is no more than 5 min.

Source of the values: patent US10456389B2, “Extended release nicotinamide formulation” (Ferring B.V., priority 2013, dated 2019).
